In patent US5225583A, “Alkyl-aryl 1,3-propanedione silicone derivative and an external preparation for skin with the derivative compounded therein” (Shiseido Co., Ltd., priority 1991, dated 1993):

Key:
[1] = Test for solubility of alkyl-aryl 1,3-propanedione silicone derivative in silicone-based oils and Squalene at 25° C.; assay type: physicochemical; details: for Solubility, Scwr, 30% / Solubility, Scwr, 50%: Scwr (Squalene); for Solubility, Scwr, 30%: 30% (w/w); for Solubility, Scwr, 50%: 50% (w/w); for Solubility, Silicon KF56, 30%: Silicone KF 56, 30% (w/w); for Solubility, Silicon KF56, 50%: Silicone KF 56, 50% (w/w); for Solubility, Sil. KF96, 30%: Silicone KF96, 30% (w/w); for Solubility, Sil. KF96, 50%: Silicone KF96, 50% (w/w)
Procedure: A circle (O) mark is put to a compound which is completely dissolved under 25° C., and a cross (X) mark is put to a compound which makes the solution cloudy even a little.

[2] = Ultraviolet ray absorption spectrum; assay type: physicochemical; design: ε: unit not given beside the values; details: for ε: at λmax; for λmax: ultraviolet ray absorption

SMILES	Solubility, Scwr, 30% [1]	Solubility, Scwr, 50% [1]	Solubility, Silicon KF56, 30% [1]	Solubility, Silicon KF56, 50% [1]	Solubility, Sil. KF96, 30% [1]	Solubility, Sil. KF96, 50% [1]	ε [2]	λmax [2] [nm]
COc1cc(C(=O)CC(=O)C(C)(C)C)ccc1OCCCCC[Si](C)(O[Si](C)(C)C)O[Si](C)(C)C [Compound 8]	.largecircle.	.largecircle.	.largecircle.	.largecircle.	.largecircle.	.largecircle.	23220	334
COc1cc(C(=O)CC(=O)C(C)(C)C)ccc1OCC(C)C[Si](C)(O[Si](C)(C)C)O[Si](C)(C)C (centres unmarked) [Compound 7]	.largecircle.	.largecircle.	.largecircle.	.largecircle.	.largecircle.	.largecircle.	27350	334
COc1cc(C(=O)CC(=O)C(C)(C)C)ccc1OCCC[Si](C)(O[Si](C)(C)C)O[Si](C)(C)C [Compound 2]	.largecircle.	.largecircle.	.largecircle.	.largecircle.	.largecircle.	.largecircle.	23550	334
CCCCC(CC)C(=O)CC(=O)c1cc(CCC[Si](C)(O[Si](C)(C)C)O[Si](C)(C)C)c(OC)c(OC)c1 (centres unmarked) [Compound 5]	.largecircle.	.largecircle.	.largecircle.	.largecircle.	.largecircle.	.largecircle.	23500	334
COc1cc(C(=O)CC(=O)C(C)(C)C)cc(CCC[Si](C)(O[Si](C)(C)C)O[Si](C)(C)C)c1O [Compound 9]	.largecircle.	.largecircle.	.largecircle.	.largecircle.	.largecircle.	–	24000	342
CCCCC(CC)C(=O)CC(=O)c1cc(CCC[Si](C)(O[Si](C)(C)C)O[Si](C)(C)C)c(OC)c(OC)c1 (centres unmarked) [Compound 6]	.largecircle.	.largecircle.	.largecircle.	.largecircle.	.largecircle.	.largecircle.	–	–
COc1cc(C(=O)CC(=O)C(C)(C)C)ccc1OCCC[Si](C)(C)O[Si](C)(C)C [Compound 1]	.largecircle.	.largecircle.	.largecircle.	.largecircle.	.largecircle.	.largecircle.	24090	335
COc1ccc(C(=O)CC(=O)C(C)(C)C)cc1OCCC[Si](C)(O[Si](C)(C)C)O[Si](C)(C)C [Compound 3]	.largecircle.	.largecircle.	.largecircle.	.largecircle.	.largecircle.	.largecircle.	–	–
